Marks after values point to notes of the source that are not given here.
Tests used:
F-actin = assay: In vitro absorbance and fluorescence response on binding to actin; assay type: biochemical; conditions: for ε: general actin buffer; for F/F0: ± s.e.m.; for increase in absorbance / increase in fluorescence intensity: upon binding to F-actin, in vitro
F-actin in U2OS cells = assay: No-wash live-cell imaging of F-actin; assay type: cell-based
Excerpt: Fluorescent probes for live-cell imaging of cytoskeletal structures have become important tools in the life sciences. In particular, the far-red, SiR-based probes for F-actin (SiR-actin) and microtubules (SiR-tubulin) have become popular as they are fluorogenic and enable no-wash imaging with little background signal. SiR-actin and SiR-tubulin are based on SiR linked to the F-actin-binder jasplakinolide and microtubule-binder docetaxel, respectively. Binding to their targets shifts for both probes the equilibrium between the cell-permeable spirolactone and the fluorescent zwitterion towards the fluorescent form. To generate fluorescent stains for F-actin and microtubule in different colors, the inventors coupled jasplakinolide and docetaxel to 6-TAMRA and its N,N-dimethylsulfamide derivative (probes 169 and 172, named MaP555-actin and MaP555-tubulin in the following). […] The specificity of MaP555-actin and MaP555-tubulin was further confirmed by co-staining with SiR-actin and SiR-tubulin. […] Similarly, binding of MaP555-tubulin to microtubules caused a high increase in absorbance (5.8-fold) and fluorescence (11-fold).
In addition, the inventors coupled the acyl sulfonamide of carbopyronine to jasplakinolide, yielding the actin probe MaP618-actin (171).

[1] = 0.2% SDS in general actin buffer
[2] = MaP618-actin, orange fluorescence

C/C1=C\CC[C@H](C)OC(=O)C[C@H](c2ccc(O)cc2)NC(=O)[C@@H](Cc2c[nH]c3ccccc23)N(C)C(=O)[C@H](CCCCNC(=O)CCCCCNC(=O)c2ccc3c(c2)C2(c4ccc(N(C)C)cc4Oc4cc(N(C)C)ccc42)N(S(=O)(=O)N(C)C)C3=O)NC(=O)[C@@H](C)C1 [compound 169]
Φ (F-actin; [1]): 0.49
ε^SDS (F-actin; [1]): 103,000 M^−1cm^−1
Φ (F-actin; binding with actin): 0.57
ε^protein (F-actin; binding with actin): 95,000 M^−1cm^−1
λabs (F-actin; binding with actin): 558
λem (F-actin; binding with actin): 580
ε (F-actin): 3,600 M^−1cm^−1
F/F0 (F-actin; ratio of fluorescence intensities at 580 nm in the presence and absence of actin): 107 ± 9.6^m
increase in absorbance (F-actin): 26 fold
increase in fluorescence intensity (F-actin): 107 fold
live-cell staining of F-actin (F-actin in U2OS cells): enabled no-wash, high-contrast staining

C/C1=C\CC[C@H](C)OC(=O)C[C@H](c2ccc(O)cc2)NC(=O)[C@@H](Cc2c[nH]c3ccccc23)N(C)C(=O)[C@H](CCCCNC(=O)CCCCCNC(=O)c2ccc3c(c2)C2(c4ccc(N(C)C)cc4C(C)(C)c4cc(N(C)C)ccc42)N(S(C)(=O)=O)C3=O)NC(=O)[C@@H](C)C1 [compound 171]
Φ (F-actin; [1]): 0.71
ε^SDS (F-actin; [1]): 24,000^i M^−1cm^−1
λem (F-actin; [2]): 635 nm
λex (F-actin; [2]): 618 nm
Φ (F-actin; binding with actin): 0.78
ε^protein (F-actin; binding with actin): 61,000 M^−1cm^−1
λabs (F-actin; binding with actin): 618
λem (F-actin; binding with actin): 635
ε (F-actin): 500 M⁻¹ cm⁻¹
fluorogenicity relative to SiR-actin (F-actin; incubation with F-actin): about four times more fluorogenic
F/F0 (F-actin; ratio of fluorescence intensities at 635 nm in the presence and absence of actin): 449 ± 6.8^j
increase in absorbance (F-actin): 122 fold
increase in fluorescence intensity (F-actin): 449 fold
live-cell staining of F-actin (F-actin in U2OS cells): clearly reveal F-actin structures
